Consider 2 molecules from patent US8906909B2 (Curis, Inc., priority 2009, dated 2014).

The target of one assay is T1, PI3Kδ (p110δ/p85α) (Homo sapiens, UniProt O00329).
T1 construct: N-terminal histidine-tagged recombinant full-length human p110δ; His tag (N); made in house; host or cells: Baculovirus-infected Sf9 insect cells
Put plainly: PI3Kδ fluorescence polarization assay. Type of assay: biochemical. Conditions: 10 μM ATP. As for the experimental part:
The proteins are purified by one-step affinity chromatography using glutathione-agarose. […] The reaction product was then mixed with a PIP3 detector protein and the fluorescent PIP3 probe. Polarization (mP) values decrease as fluorescent probe binding to the PIP3 detector is displaced by PIP3 produced by enzymatic activity and the amount of unbound fluorescent probe in the mixture increases. Polarization degrees (mP) value was determined using microplate reader with background subtraction.
Background: Fluorescence polarisation rises when a labelled molecule tumbles more slowly, as on binding a larger partner.

The next assay concerns MEG-01 cells. The experiment in a line: Cell proliferation assay Method B, MEG-01. Type of assay: cell-based. Conditions: Homo sapiens, CML, 72 hours, read-out: antiproliferative activity IC50, MEG-01. As for the experimental part:
(§1) Cancer cell lines were plated at 5,000 to 10,000 per well in 96-well flat bottomed plates with various concentration of compounds. The cells were incubated with compounds for 72 hours in the presence of 0.5% of fetal bovine serum. Growth inhibition was accessed by adenosine triphosphate (ATP) content assay using Promega CellTiter-Glo kit. Promega CellTiter-Glo kit is an ATP monitoring system based on firefly luciferase. Briefly, 16 μl of mammalian cell lysis and substrate solution was added to 84 μl of culture medium per well to lyse the cells and stabilize the ATP. The mixture was shaken and incubated for 30 minutes and subsequently the luminescence was measured.

A further assay concerns the target T2, PI3Kβ (p110β/p85α) (Homo sapiens, UniProt P42338).
T2 construct: N-terminal histidine-tagged recombinant full-length human p110β; His tag (N); made in house; host or cells: Baculovirus-infected Sf21 insect cells
Put plainly: PI3Kβ TR-FRET (HTRF) assay. The format is biochemical. To be noted: 10 μM ATP.

For a further assay, the system named is Raji cells. Put plainly: Cell proliferation assay Method B, Raji. The format is cell-based. Conditions: Homo sapiens, NHL, 72 hours, read-out: antiproliferative activity IC50, Raji. As for the experimental part:
as §1

The subject of a further assay is SUP-B15 cells. The experiment in a line: Cell proliferation assay Method B, SUP-B15. Conditions: Homo sapiens, ALL, 72 hours, read-out: antiproliferative activity IC50, SUP-B15. The format is cell-based. As for the experimental part: as §1
Another assay concerns H1993 cells. Put plainly: Cell proliferation assay Method A (ATPlite), H1993. Conditions: Homo sapiens, NCI-H1993, 72 hours, read-out: antiproliferative activity IC50, H1993. The format is cell-based. In short, it runs like this:
(§2)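 Cells seeded at 5,000–10,000 per well with graded compound concentrations and cultured 72 h in 0.5% fetal bovine serum. Growth inhibition read as cellular ATP content by firefly luciferase luminescence (ATPlite).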
A general note: Cellular ATP, detected with luciferase, serves as a proxy for viable cell number.

In a further assay the test system is BT-474 cells. The experiment in a line: Cell proliferation assay Method A (ATPlite), BT-474. Type of assay: cell-based. To be noted: Homo sapiens, 72 hours, read-out: antiproliferative activity IC50, BT-474. In short, it runs like this: as §2
A further assay deals with Sk-Mel-28 cells. Put plainly: Cell proliferation assay Method B, Sk-Mel-28. Type of assay: cell-based. To be noted: Homo sapiens, SK-MEL-28; Melanoma; Method B; 72 hours; read-out: antiproliferative activity IC50, Sk-Mel-28. In short, it runs like this: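 Growth inhibition was scored by luciferase-based ATP luminescence (CellTiter-Glo, 30 min after lysis). This followed 72 h of compound exposure in medium with 0.5% fetal bovine serum, with 5,000–10,000 cells seeded per well.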

The subject of the next assay is SKBr3 cells. The experiment in a line: Cell proliferation assay Method B, SKBr3. Type of assay: cell-based. To be noted: Homo sapiens, SK-BR-3, Breast, 72 hours, read-out: antiproliferative activity IC50, SKBr3. The method, then:
as §1

The test system of another assay is HCT-118 cells. The experiment in a line: Cell proliferation assay Method A (ATPlite), HCT-118. Type of assay: cell-based. Conditions: 72 hours, read-out: antiproliferative activity IC50, HCT-118. In short, it runs like this:
as §2

In the next assay the target is T3, PI3Kγ (p120γ) (Homo sapiens, UniProt P48736).
T3 construct: His tag (N); made in house; host or cells: Baculovirus-infected Sf9 insect cells
Put plainly: PI3Kγ TR-FRET (HTRF) assay. The format is biochemical. Conditions: 10 μM ATP. The text has this:
The proteins are purified by one-step affinity chromatography using glutathione-agarose.
(In general: In TR-FRET formats the signal depends on donor and acceptor labels being close together.)

The test system of a further assay is T-84 cells. The experiment in a line: Cell proliferation assay Method B, T-84. Type of assay: cell-based. Conditions: Homo sapiens, T84, Colon, 72 hours, read-out: antiproliferative activity IC50, T-84. The method, then:
as §1

A further assay concerns PC-3 cells. The experiment in a line: Cell proliferation assay Method B, PC-3. Type of assay: cell-based. To be noted: Homo sapiens, Prostate, 72 hours, read-out: antiproliferative activity IC50, PC-3. The method, then: as §1
A further assay relates to A549 cells. Put plainly: Cell proliferation assay Method B, A549. Conditions: Homo sapiens, NSCLC, 72 hours, read-out: antiproliferative activity IC50, A549. The format is cell-based. The method, then: as §1
Another assay has as its system SW1990 cells. The experiment in a line: Cell proliferation assay Method B, SW1990. The format is cell-based. To be noted: Homo sapiens, Pancreas, 72 hours, read-out: antiproliferative activity IC50, SW1990. The method, then: as §1
For a further assay, the system named is H2122 cells. Put plainly: Cell proliferation assay Method B, H2122. To be noted: Homo sapiens, NCI-H2122, NSCLC, 72 hours, read-out: antiproliferative activity IC50, H2122. The format is cell-based. As for the experimental part:
as §1

For the next assay, the system named is SW403 cells. Put plainly: Cell proliferation assay Method B, SW403. The format is cell-based. Conditions: Homo sapiens, SW-403, Colon, 72 hours, read-out: antiproliferative activity IC50, SW403. The method, then: as §1
Another assay deals with SWI-116 cells. Put plainly: Cell proliferation assay Method B, SWI-116. To be noted: Colon, 72 hours, read-out: antiproliferative activity IC50, SWI-116. The format is cell-based. As for the experimental part: as §1
For the next assay, the system named is WiDr cells. The experiment in a line: Cell proliferation assay Method B, WiDr. The format is cell-based. Conditions: Homo sapiens, Colon, 72 hours, read-out: antiproliferative activity IC50, WiDr. As for the experimental part:
as §1

A further assay deals with SW620 cells. The experiment in a line: Cell proliferation assay Method B, SW620. The format is cell-based. To be noted: Homo sapiens, SW-620, Colon, 72 hours, read-out: antiproliferative activity IC50, SW620. As for the experimental part:
as §1

For another assay, the system named is MiaPaca1 cells. Put plainly: Cell proliferation assay Method B, MiaPaca1. The format is cell-based. Conditions: Pancreas, 72 hours, read-out: antiproliferative activity IC50, MiaPaca1. As for the experimental part: as §1
A further assay deals with PANC-1 cells. The experiment in a line: Cell proliferation assay Method B, PANC-1. Type of assay: cell-based. Conditions: Homo sapiens, Pancreas, 72 hours, read-out: antiproliferative activity IC50, PANC-1. The method, then: as §1
The test system of a further assay is H358 cells. Put plainly: Cell proliferation assay Method B, H358. Type of assay: cell-based. Conditions: Homo sapiens, NCI-H358, NSCLC, 72 hours, read-out: antiproliferative activity IC50, H358. As for the experimental part: as §1
The next assay concerns HCT116 cells. Put plainly: Cell proliferation assay Method B, HCT116. Conditions: Homo sapiens, HCT-116, Colon, 72 hours, read-out: antiproliferative activity IC50, HCT116. The format is cell-based. As for the experimental part: as §1

T1 sequence (O00329 whole entry): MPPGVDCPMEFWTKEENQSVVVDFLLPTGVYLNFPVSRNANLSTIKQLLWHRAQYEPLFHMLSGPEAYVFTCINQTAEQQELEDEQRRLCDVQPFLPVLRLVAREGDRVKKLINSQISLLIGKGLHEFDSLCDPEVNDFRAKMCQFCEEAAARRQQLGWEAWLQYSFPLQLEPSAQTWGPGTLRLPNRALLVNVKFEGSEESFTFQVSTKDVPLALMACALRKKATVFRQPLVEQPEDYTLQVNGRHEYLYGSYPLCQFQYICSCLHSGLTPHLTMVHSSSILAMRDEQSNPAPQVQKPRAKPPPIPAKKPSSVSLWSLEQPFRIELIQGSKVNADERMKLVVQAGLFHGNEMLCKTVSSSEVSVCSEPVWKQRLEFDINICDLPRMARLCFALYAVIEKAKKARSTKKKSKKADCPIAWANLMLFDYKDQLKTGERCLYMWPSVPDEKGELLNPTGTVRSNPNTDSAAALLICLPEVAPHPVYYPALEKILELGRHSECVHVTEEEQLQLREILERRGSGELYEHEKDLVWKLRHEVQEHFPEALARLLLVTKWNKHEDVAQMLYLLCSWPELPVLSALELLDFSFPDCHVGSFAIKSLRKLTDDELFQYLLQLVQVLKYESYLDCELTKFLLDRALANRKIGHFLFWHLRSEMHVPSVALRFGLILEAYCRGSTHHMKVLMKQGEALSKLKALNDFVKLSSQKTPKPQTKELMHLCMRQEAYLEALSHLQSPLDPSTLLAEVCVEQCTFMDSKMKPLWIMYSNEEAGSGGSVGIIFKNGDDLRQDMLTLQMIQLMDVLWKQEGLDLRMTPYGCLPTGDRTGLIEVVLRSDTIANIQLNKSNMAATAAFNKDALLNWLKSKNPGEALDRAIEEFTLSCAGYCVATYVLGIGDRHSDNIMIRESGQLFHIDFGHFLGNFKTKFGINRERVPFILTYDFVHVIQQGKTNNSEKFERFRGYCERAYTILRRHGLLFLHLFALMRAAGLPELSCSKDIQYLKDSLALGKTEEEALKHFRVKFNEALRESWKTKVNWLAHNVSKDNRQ
T1 sequence (P27986 whole entry partner): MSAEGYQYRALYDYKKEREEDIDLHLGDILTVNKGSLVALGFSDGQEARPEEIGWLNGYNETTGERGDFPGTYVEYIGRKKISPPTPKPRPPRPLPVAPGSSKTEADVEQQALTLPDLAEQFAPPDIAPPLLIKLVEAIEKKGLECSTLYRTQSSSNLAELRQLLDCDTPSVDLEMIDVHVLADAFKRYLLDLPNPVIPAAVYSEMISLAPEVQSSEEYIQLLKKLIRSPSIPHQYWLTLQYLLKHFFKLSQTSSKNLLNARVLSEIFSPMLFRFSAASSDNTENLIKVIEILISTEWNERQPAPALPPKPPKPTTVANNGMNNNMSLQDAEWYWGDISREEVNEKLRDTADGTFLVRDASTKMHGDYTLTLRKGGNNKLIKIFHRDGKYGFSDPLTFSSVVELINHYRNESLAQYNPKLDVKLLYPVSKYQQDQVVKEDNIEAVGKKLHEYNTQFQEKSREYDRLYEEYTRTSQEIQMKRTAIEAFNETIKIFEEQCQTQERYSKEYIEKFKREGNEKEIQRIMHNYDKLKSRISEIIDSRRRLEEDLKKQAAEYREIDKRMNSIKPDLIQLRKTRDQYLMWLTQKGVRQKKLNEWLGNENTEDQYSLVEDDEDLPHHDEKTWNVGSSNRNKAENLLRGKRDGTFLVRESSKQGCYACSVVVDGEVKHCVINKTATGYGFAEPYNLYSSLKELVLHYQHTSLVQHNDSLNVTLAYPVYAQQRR
T2 sequence (P42338 whole entry): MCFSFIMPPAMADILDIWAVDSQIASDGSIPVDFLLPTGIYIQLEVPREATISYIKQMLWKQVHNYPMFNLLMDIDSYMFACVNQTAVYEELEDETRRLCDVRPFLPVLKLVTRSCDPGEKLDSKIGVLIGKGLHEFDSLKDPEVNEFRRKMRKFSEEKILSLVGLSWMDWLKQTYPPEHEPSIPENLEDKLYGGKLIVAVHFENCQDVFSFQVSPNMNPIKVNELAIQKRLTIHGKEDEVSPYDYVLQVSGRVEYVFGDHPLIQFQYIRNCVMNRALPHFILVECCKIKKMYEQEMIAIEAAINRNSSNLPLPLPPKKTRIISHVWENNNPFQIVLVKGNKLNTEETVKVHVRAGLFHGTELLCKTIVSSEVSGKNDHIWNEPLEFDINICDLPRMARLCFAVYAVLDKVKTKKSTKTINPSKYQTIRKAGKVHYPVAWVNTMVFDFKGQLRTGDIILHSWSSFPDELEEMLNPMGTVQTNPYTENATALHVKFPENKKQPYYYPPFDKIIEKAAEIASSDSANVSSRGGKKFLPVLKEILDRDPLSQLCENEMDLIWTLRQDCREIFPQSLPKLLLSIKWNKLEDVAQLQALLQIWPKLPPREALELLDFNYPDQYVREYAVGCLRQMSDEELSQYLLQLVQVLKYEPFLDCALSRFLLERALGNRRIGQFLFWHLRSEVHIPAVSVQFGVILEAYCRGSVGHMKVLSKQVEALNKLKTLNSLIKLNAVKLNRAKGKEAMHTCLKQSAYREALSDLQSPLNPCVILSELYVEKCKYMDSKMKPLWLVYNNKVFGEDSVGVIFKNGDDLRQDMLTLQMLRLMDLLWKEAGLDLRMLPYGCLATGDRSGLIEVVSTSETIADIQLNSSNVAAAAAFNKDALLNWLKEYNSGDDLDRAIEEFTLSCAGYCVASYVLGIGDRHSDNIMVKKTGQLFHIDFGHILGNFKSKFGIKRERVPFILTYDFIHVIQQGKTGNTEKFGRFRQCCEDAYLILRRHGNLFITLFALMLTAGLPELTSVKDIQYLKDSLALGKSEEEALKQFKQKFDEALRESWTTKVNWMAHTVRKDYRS
T2 sequence (P27986 whole entry partner): as the sequence (P27986 whole entry partner) above
T3 sequence (P48736 whole entry): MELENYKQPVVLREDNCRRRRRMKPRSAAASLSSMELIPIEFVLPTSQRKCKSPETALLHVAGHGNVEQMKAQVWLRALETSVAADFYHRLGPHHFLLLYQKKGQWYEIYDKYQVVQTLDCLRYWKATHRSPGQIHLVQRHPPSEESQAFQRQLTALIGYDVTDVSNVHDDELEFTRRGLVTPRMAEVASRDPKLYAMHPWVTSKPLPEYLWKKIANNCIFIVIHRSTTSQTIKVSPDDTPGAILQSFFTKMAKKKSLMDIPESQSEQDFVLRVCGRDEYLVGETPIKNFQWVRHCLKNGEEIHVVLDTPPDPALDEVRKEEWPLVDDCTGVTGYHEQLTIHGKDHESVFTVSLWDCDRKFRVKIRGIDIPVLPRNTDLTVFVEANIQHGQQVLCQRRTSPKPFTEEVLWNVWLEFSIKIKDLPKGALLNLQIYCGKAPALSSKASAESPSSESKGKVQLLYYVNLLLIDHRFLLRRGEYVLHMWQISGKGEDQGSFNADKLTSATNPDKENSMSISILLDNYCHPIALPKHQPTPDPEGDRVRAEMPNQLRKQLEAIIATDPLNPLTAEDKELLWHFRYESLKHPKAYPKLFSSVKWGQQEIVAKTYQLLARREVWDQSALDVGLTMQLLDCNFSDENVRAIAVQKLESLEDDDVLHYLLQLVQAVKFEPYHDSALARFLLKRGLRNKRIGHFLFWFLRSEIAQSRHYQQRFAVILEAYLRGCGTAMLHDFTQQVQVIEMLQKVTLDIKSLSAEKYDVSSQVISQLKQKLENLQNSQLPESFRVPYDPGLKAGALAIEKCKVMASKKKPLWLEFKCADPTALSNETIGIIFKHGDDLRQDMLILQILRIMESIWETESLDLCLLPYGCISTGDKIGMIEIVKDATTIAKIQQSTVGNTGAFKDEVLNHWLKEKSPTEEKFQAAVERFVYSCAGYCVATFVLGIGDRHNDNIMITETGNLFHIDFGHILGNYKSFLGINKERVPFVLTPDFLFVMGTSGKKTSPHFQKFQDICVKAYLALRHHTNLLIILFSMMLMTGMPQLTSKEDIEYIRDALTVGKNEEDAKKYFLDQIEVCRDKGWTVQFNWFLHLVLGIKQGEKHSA
Description for PI3Kβ (p110β/p85α): Activity of PI3Kβ was measured using time-resolved fluorescence resonance energy transfer (TR-FRET) assay utilizing homogenous time resolved fluorescence (HTRF) technology. PI3Kβ, a complex of N-terminal histidine-tagged recombinant full-length human p110β and untagged recombinant full length human p85α were coexpressed in a Baculovirus infected Sf21 cell expression system. (GenBank Accession No. for p110β, NM—006219; for p85α, XM—043865) The proteins are purified by one-step affinity chromatography using glutathione-agarose. A competition assay was performed to measure the amount of PIP3 generated from PIP2 in the presence of purified recombinant PI3 Kbeta (p110β/p85α). PI3Kβ was incubated with 10 μM PIP2 substrate in the reaction buffer (20 mM HEPES, pH 7.5, 10 mM NaCl, 4 mM MgCl2, 2 mM DTT, 10 μM ATP and 1% DMSO) for 30 minutes at 30° C. The reaction product was then mixed with a PIP3 detector protein, europium-labeled antibody, biotin-labeled PIP3 probe and allophycocyanin-labeled Streptavidin. A sensor complex is formed to generate a stable TR-FRET signal in the reaction mixture. This signal intensity decrease as biotin-labeled probe binding to the PIP3 detector is displaced by PIP3 produced by enzymatic activity and the amount of unbound biotin-labeled PIP3 probe in the mixture increases. TR-FRET signal was determined using microplate reader with background subtraction.

A word on the IC50: it is the point on the concentration scale where inhibition reaches its midpoint. For `CN(Cc1cc2nc(-c3ccc(N)cc3)nc(N3CCOCC3)c2s1)c1ncc(C(=O)NO)cn1` [Compound 150, 2-(((2-(4-aminophenyl)-4-morpholinothieno[3,2-d]pyrimidin-6-yl)methyl)(methyl)amino)-N-hydroxypyrimidine-5-carboxamide], the IC50 is less than 0.1 µM at PI3Kδ (p110δ/p85α); 0.01 to 0.1 µM in the assay with MEG-01 cells; less than 0.1 µM against PI3Kβ (p110β/p85α); less than 0.01 µM with Raji cells; less than 0.01 µM in the assay with SUP-B15 cells; less than 0.1 µM in the assay with H1993 cells. Moreover, the IC50 is less than 0.1 µM in the assay with BT-474 cells; less than 0.01 µM in the assay with Sk-Mel-28 cells; 0.01 to 0.1 µM in the assay on SKBr3 cells; less than 0.1 µM in the assay with HCT-118 cells; 0.1 to 1 µM against PI3Kγ (p120γ).

In the case of `CS(=O)(=O)N1CCN(Cc2cc3nc(-c4cccc5[nH]ncc45)nc(N4CCOCC4)c3s2)CC1` [GDC-0941, reference compound], the IC50 in the assay with T-84 cells is 1 to 10 µM; in the assay with MEG-01 cells it was greater than 10 µM; in the assay with PC-3 cells, 1 to 10 µM; in the assay on A549 cells, 1 to 10 µM; in the assay with SW1990 cells, greater than 10 µM; with Raji cells, greater than 10 µM. Besides, the concentration for half-maximal inhibition (IC50) in the assay with H2122 cells was 1 to 10 µM; in the assay on SW403 cells, greater than 10 µM; with SWI-116 cells it was greater than 10 µM; with WiDr cells, greater than 10 µM; with SW620 cells, greater than 10 µM; with MiaPaca1 cells, greater than 10 µM. The IC50 was 1 to 10 µM in the assay on PANC-1 cells; 0.01 to 0.1 µM in the assay with Sk-Mel-28 cells; greater than 10 µM with SKBr3 cells; 1 to 10 µM with H358 cells; 1 to 10 µM in the assay with HCT116 cells.
